Test results taken from patent US10098887B2, “Antiviral compounds and methods of use thereof” (Trana Discovery, Inc., priority 2010, dated 2018).

Columns and labels:
[1] = test system: interaction between Human tRNA^Lys3 and HIV-1 genomic RNA; assay: Biochemical HIV-1 tRNA Inhibition Assay (AlphaScreen); format: binding; set-up: key: +: showing some activity; ++: intermediate activity; +++: the highest activity; settings: active compounds from high throughput screening, prioritized on IC50
Excerpt: The methods for detecting binding of the target RNA to the tRNA or the inhibition of such binding may be performed using any method for such detection. For example, the AlphaScreen® assay (Packard Instrument Company, Meriden, Conn.). AlphaScreen® technology is an “Amplified Luminescent Proximity Homogeneous Assay” method utilizing latex microbeads (250 nm diameter) containing a photosensitizer (donor beads), or chemiluminescent groups and fluorescent acceptor molecules (acceptor beads). Upon illumination with laser light at 680 nm, the photosensitizer in the donor bead converts ambient oxygen to singlet-state oxygen. The excited singlet-state oxygen molecules diffuse approximately 250 nm (one bead diameter) before rapidly decaying. If the acceptor bead is in close proximity to the donor bead (i.e., by virtue of the interaction of the target RNA and tRNA fragment), the singlet-state oxygen molecules reacts with chemiluminescent groups in the acceptor beads, which immediately transfer energy to fluorescent acceptors in the same bead. These fluorescent acceptors shift the emission wavelength to 520-620 nm, resulting in a detectable signal. Antagonists of the interaction of the target RNA with the tRNA fragment will thus inhibit the shift in emission wavelength, whereas agonists of this interaction would enhance it.
In the AlphaScreen configuration (FIG. 3) the assay is done in solution using the same RNA as the immobilization assay. The donor and acceptor beads are bound to their respective RNA's. During the screening the RNAs and test drugs/small molecules are incubated together and formation of the complex is measured using the AlphaScreen detection conditions. Utilization of the AlphaScreen assay may allow for the assay to be run at a lower RNA concentration at room temperature, and increase the stability of the complex.
HIV-1 has evolved to use Human tRNA^Lys3 as a primer for initiation of reverse transcription. Therefore, the interaction between tRNA^Lys3 and viral genomic RNA represents a potential novel target for HIV-1 drug development. Based on this hypothesis, a biochemical assay to identify inhibitors of the interaction between Human tRNA^Lys3 and HIV-1 genomic RNA was developed by TRANA Discovery and transferred to Southern Research Institute for high-throughput screening. This assay was developed as a homogeneous amplified luminescent proximity assay using AlphaScreen™ reagents from PerkinElmer. Based on this assay technology, the AlphaScreen™ luminescent signal serves as a mechanism for detecting the interaction between RNA molecules that represent Human tRNA^Lys3 and HIV-1 genomic RNA. The inhibition of the interaction between these RNA molecules by test compounds is detected as a decrease in the AlphaScreen™ luminescent signal.
A preliminary 15,000 compound screen (NINDS Diversity Set) was previously completed and the results were reported through NIAID contract N01-AI-70042. For the results described herein, a 101,000 compound library that was purchased from ChemBridge for the NIAID TAACF program was used. This library was carefully selected for diversity and minimal similarity to the 100,000 compound NINDS library, which is also planned to be screened using the TRANA Discovery Biochemical HIV-1 tRNA Inhibition Assay. The compounds were screened at a concentration of 12.5 μg/mL (first 3 batches) or 25 μg/mL (fourth and final batch).

[2] = assays described herein (not specified)

Row | Structure (SMILES) | Activity [1] | active in the assays described herein [2]
1 | O=C1NC(=O)N(c2cccc3ccccc23)C(=O)C1=Cc1ccco1 [5-(2-furylmethylene)-1-(1-naphthyl)-2,4,6(1H,3H,5H)-pyrimidinetrione] | + | –
2 | O=C1C(=Cc2ccc(O)c(O)c2)SC(=S)N1c1cccc(F)c1 [5-(3,4-dihydroxybenzylidene)-3-(3-fluorophenyl)-2-thioxo-1,3-thiazolidin-4-one] | ++ | –
3 | CCN1C(=O)C(=Cc2ccc(O)c(O)c2)SC1=S [5-(3,4-dihydroxybenzylidene)-3-ethyl-2-thioxo-1,3-thiazolidin-4-one] | + | –
4 | O=C1C(=Cc2ccc(O)c(O)c2)SC(=S)N1c1ccccc1 [5-(3,4-dihydroxybenzylidene)-3-phenyl-2-thioxo-1,3-thiazolidin-4-one] | + | –
5 | CC(=O)N1c2ccc(C)cc2-c2c(ssc2=S)C1(C)C [5-acetyl-4,4,8-trimethyl-4,5-dihydro-1H[1,2]dithiolo[3,4-c]quinoline-1-thione] | + | –
6 | CCOc1ccc2c(c1)-c1c(ssc1=S)C(C)(C)N2C(C)=O [5-acetyl-8-ethoxy-4,4-dimethyl-4,5-dihydro-1H-[1,2]dithiolo[3,4-c]quinoline-1-thione] | + | –
7 | COc1ccc2c(c1)-c1c(ssc1=S)C(C)(C)N2C(C)=O [5-acetyl-8-methoxy-4,4-dimethyl-4,5-dihydro-1H-[1,2]dithiolo[3,4-c]quinoline-1-thione] | + | –
8 | Cc1ccc(C=NNc2ccccc2[N+](=O)[O-])o1 [5-methyl-2-furaldehyde (2-nitrophenyl)hydrazone] | + | –
9 | Cc1[nH]c(=O)[nH]c1C(=O)CCCCC(=O)O [6-(5-methyl-2-oxo-2,3-dihydro-1H-imidazol-4-yl)-6-oxohexanoic acid] | +++ | –
10 | CCOc1ccc2c(c1)-c1c(s[s+]c1SC)C(C)(C)N2.[Cl-] [8-ethoxy-4,4-dimethyl-1-(methylthio)-4,5-dihydro[1,2]dithiolo[3,4-c]quinolin-2-ium chloride] | ++ | –
11 | COc1ccccc1N1CCN(CC=Cc2ccc(N(C)C)cc2)CC1 [(4-{3-[4-(2-methoxyphenyl)-1-piperazinyl]-1-propen-1-yl}phenyl)dimethylamine] | + | –
12 | CN(C)c1ccc(C(O)(c2ccc(N(C)C)cc2)c2ccc(N(C)C)cc2)cc1 [Compound 7, tris[4-(dimethylamino)phenyl]methanol] | – | active
13 | O=C(O)CCCCC1SCC2NC(=O)NC21 (stereo not drawn) [Compound 8, 5-(2-oxohexahydro-1H-thieno[3,4-d]imidazol-4-yl)pentanoic acid] | – | active
14 | CCc1ccc(C2=CC(=O)c3ccccc3C2=O)cc1 [Compound 26, 2-(4-ethylphenyl)naphthoquinone] | – | active
15 | CCc1ccc(N2N=C(C)C(=Cc3ccc(N4CCOCC4)cc3)C2=O)cc1 [Compound 32, 2-(4-ethylphenyl)-5-methyl-4-[4-(4-morpholinyl)benzylidene]-2,4-dihydro-3H-pyrazol-3-one] | – | active
16 | O=c1cc2oc3cc(O)c(O)cc3c(-c3ccc([N+](=O)[O-])o3)c-2cc1O [Compound 38, 2,6,7-trihydroxy-9-(5-nitro-2-furyl)-3H-xanthen-3-one] | – | active
17 | CNC(=S)N1N=C(c2ccc(OC)cc2)CC1c1ccc(N(C)C)cc1 (stereo not drawn) [Compound 40, 5-[4-(dimethylamino)phenyl]-3-(4-methoxyphenyl)-N-methyl-4,5-dihydro-1H-pyrazole-1-carbothioamide] | – | active
18 | COc1ccc(C(=C2C=CC=C2)c2ccc(OC)cc2)cc1 [Compound 46, 1,1′-(2,4-cyclopentadien-1-ylidenemethylene)bis(4-methoxybenzene)] | – | active
19 | CCc1cc2c(=S)c(-c3ccccc3Cl)coc2cc1OC [Compound 47, 3-(2-chlorophenyl)-6-ethyl-7-methoxy-4H-chromene-4-thione] | – | active
20 | O=C1c2ccc([N+](=O)[O-])cc2C(=O)N1C1CC2CCC1C2 (stereo not drawn) [Compound 57, 2-bicyclo[2.2.1]hept-2-yl-5-nitro-1H-isoindole-1,3(2H)-dione] | – | active

Row | Structure (SMILES) | Activity [1] | active in the assays described herein [2]
21 | CCCOc1ccc(C2Oc3ccc(Br)cc3C=C2[N+](=O)[O-])cc1OC (stereo not drawn) [Compound 59, 6-bromo-2-(3-methoxy-4-propoxyphenyl)-3-nitro-2H-chromene] | – | active
22 | O=C1NC(=O)N(c2ccc(Cl)cc2)C(=O)C1=Cc1ccc([N+](=O)[O-])o1 [Compound 65, 1-(4-chlorophenyl)-5-[(5-nitro-2-furyl)methylene]-2,4,6(1H,3H,5H)-pyrimidinetrione] | – | active
23 | CCc1ccc(N2N=C(C)C(=Cc3cc(OC)c(O)c(OC)c3)C2=O)cc1 [Compound 72, 2-(4-ethylphenyl)-4-(4-hydroxy-3,5-dimethoxybenzylidene)-5-methyl-2,4-dihydro-3H-pyrazol-3-one] | – | active
24 | Br.CCN(CC)c1ccc(Nc2nc(-c3ccccn3)cs2)cc1 [N,N-diethyl-N′-[4-(2-pyridinyl)-1,3-thiazol-2-yl]-1,4-benzenediamine hydrobromide] | + | –
25 | Cc1ccc2nc3c(c(Nc4ccc(N(C)C)cc4)c2c1)CCC3 [N,N-dimethyl-N′-(7-methyl-2,3-dihydro-1H-cyclopenta[b]quinolin-9-yl)-1,4-benzenediamine] | + | –
26 | Cc1nc(NC(=N)N)nc2c(C)cccc12 [N-(4,8-dimethyl-2-quinazolinyl)guanidine] | + | –
27 | CCOc1nc(NC(=N)N)nc2c(C)cccc12 [N-(4-ethoxy-8-methyl-2-quinazolinyl)guanidine] | ++ | –
28 | CCOc1ccc(Nc2ccc([N+](=O)[O-])c3nonc23)cc1 [N-(4-ethoxyphenyl)-7-nitro-2,1,3-benzoxadiazol-4-amine] | + | –
29 | COc1ccc2c(C)nc(NC(=N)N)nc2c1 [N-(7-methoxy-4-methyl-2-quinazolinyl)guanidine] | + | –
30 | CCN(CC)c1ccc(NC(=S)NC(=O)c2cccc(OC(C)C)c2)cc1 [N-({[4-(diethylamino)phenyl]amino}carbonothioyl)-3-isopropoxybenzamide] | + | –
31 | CCN(CC)CCN(CC)Cc1ccc(N(C)C)cc1 [N-[4-(dimethylamino)benzyl]-N,N′,N′-triethyl-1,2-ethanediamine] | + | –
32 | CCOC(=O)C(C(=O)c1ccccc1)C1=CC(=O)C(=O)c2ccc(Br)cc21 (stereo not drawn) [ethyl 2-(7-bromo-3,4-dioxo-3,4-dihydro-1-naphthalenyl)-3-oxo-3-phenylpropanoate] | + | –
33 | CCOC(=O)c1ccc(NC2=C(N3CCOCC3)C(=O)c3ccccc3C2=O)cc1 [ethyl 4-{[3-(4-morpholinyl)-1,4-dioxo-1,4-dihydro-2-naphthalenyl]amino}benzoate] | ++ | –
34 | CCOC(=O)c1cc(N)ccc1-c1c2ccc(=O)cc-2oc2cc(O)ccc12 [ethyl 5-amino-2-(6-hydroxy-3-oxo-3H-xanthen-9-yl)benzoate] | +++ | –
35 | CCOC(=O)CCCCC(=O)c1[nH]c(=O)[nH]c1C [ethyl 6-(5-methyl-2-oxo-2,3-dihydro-1H-imidazol-4-yl)-6-oxohexanoate] | ++ | –
36 | CCOC(=O)C=C1NC(c2ccccc2)=C(c2ccccc2)C1=O [ethyl (3-oxo-4,5-diphenyl-1,3-dihydro-2H-pyrrol-2-ylidene)acetate] | ++ | –
37 | COC(=O)c1ccc(NC2=C(N3CCCC3)C(=O)c3ccccc3C2=O)cc1 [methyl 4-{[1,4-dioxo-3-(1-pyrrolidinyl)-1,4-dihydro-2-naphthalenyl]amino}benzoate] | ++ | –
38 | COC(=O)c1ccc(NC2=C(N3CCOCC3)C(=O)c3ccccc3C2=O)cc1 [methyl 4-{[3-(4-morpholinyl)-1,4-dioxo-1,4-dihydro-2-naphthalenyl]amino}benzoate] | ++ | –
39 | COC(=O)c1ccc(N2CCCCC2)c2c1C(=O)c1ccccc1C2=O [methyl 9,10-dioxo-4-(1-piperidinyl)-9,10-dihydro-1-anthracenecarboxylate] | ++ | –
